Data: patent EP1203770A1 (priority 1992, dated 1994)
Entries after “also recorded” stand apart in the source; their conditions may differ.

What was measured:
HIV-1 protease = biological target: T1, HIV-1 protease (Human immunodeficiency virus type 1 group M subtype B, UniProt P04585); assay: In vitro HIV protease inhibitory assay (HIV Protease FITC Assay); format: biochemical; details: for inhibition at 1 µM: HIV-1 Dose 1.000 uM; for inhibition at 10 µM: HIV-1 Dose 10.000 uM; for inhibition at 100 µM: HIV-1 Dose 100.000 uM
T1 construct: The protease (or proteinase), consisting of only 99 amino acids, is among the smallest enzymes known
Procedure, shortened: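 Biotin/FITC-labelled peptide substrate cleaved by HIV-1 protease for 1 h at room temperature in the dark, in 0.1 M sodium acetate pH 5.5, 1.0 M NaCl, 0.05% NP-40. Uncleaved substrate captured on avidin beads and separated by filtration; fluorescence gave % inhibition.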

HIV-1IIIB = assay: Inhibition of retroviral replication in infected human T-cell lines (MT4, H9); format: cell-based; details: e.g., MT4 and H9, infected with HIV-1IIIB
Description: Several compounds of the present invention, such as 3-(alpha-ethylbenzyl)-6-(alpha-ethylphenethyl)-4-hydroxy-2H-pyran-2-one, were tested in known human cell lines, such as human T-cell lines, e.g., MT4 and H9, which were infected with HIV-1IIIB, and certain of these compounds were further tested in peripheral blood mononuclear cells (PBMC), which were infected with HIV-1JRCSF (a clinical isolate).

[1] = system: testosterone 5α-reductase; assay: In vitro testosterone 5α-reductase inhibitor assay; format: biochemical; details: at a dose of at least 0.1 mM; dog and rat prostates
Description: The following five (5) compounds of the present invention were tested in an in vitro testosterone 5α-reductase inhibitor assay: 3-(α-Ethylbenzyl)-6-(α-ethylphenethyl)-4-hydroxy-2H-pyran-2-one; 6-(1-Benzyl-propyl)-3-(cyclopropyl-phenyl-methyl)-4-hydroxy-pyran-2-one; 3-(α-Ethylbenzyl)-6-(α-ethylbenzyl)-4-hydroxy-2H-pyran-2-one; 3-(α-Ethylbenzyl)-6-phenethyl-4-hydroxy-2H-pyran-2-one; 4-Hydroxy-3-(1-phenylpropyl)-6-[1-[(tetrahydro-2H-pyran-3-yl)methyl]propyl]-2H-pyran-2-one. This assay is very similar to those described in the following references, except for the use of dog and rat prostates in place of human prostates: Proc. Natl. Acad. Sci. USA, Vol. 90: 5277-5281 (1993); J. Steroid. Biochem. Molec. Biol., Vol. 44, No. 2, pp. 121-131 (1993). All five (5) compounds had activity in this assay at a dose of at least 0.1 mM.

[2] = Four week oral drug safety and toxicity study in beagle dogs (prostate size and weight); format: in vivo
Text: Daily oral doses were divided into two (2) equal doses with at least seven (7) hours between the morning and afternoon dose. Parameters evaluated included twice daily clinical observations; daily evaluation of food and water consumption; twice weekly body weights; pretest and dosage day (dd) 15 or 16 and 24 or 25 electrocardiograms; pretest and dd 23 or 24 ophthalmology examinations; pretest and dd 1, 8, 14, 21 and 28 plasma drug levels; pretest and dd 8, 14, and 28 hemograms and serum chemistries; pretest and dd 14 and 28 urinalyses; terminal body weights, gross necropsy observations and absolute and relative organ weights; and histopathologic evaluation of organs and tissues.

[3] = read-out: HIV-1 Protease % Inhib
[4] = male dogs, group 2, 50 mg/kg/day oral, 28 days, n=3
[5] = male dogs, group 3, 100 mg/kg/day oral, 28 days, n=3
[6] = male dogs, group 4, 200 mg/kg/day oral, 28 days, n=3
[7] = male dogs, group 5, 400 mg/kg/day oral, 28 days, n=3
[8] = repeat study, 400 mg/kg/day, 4 dogs
[9] = repeat study, male dogs, group 7, 400 mg/kg/day, n=4

With `CCC(Cc1ccccc1)c1cc(O)c(C(CC)c2ccccc2)c(=O)o1` (stereo not drawn) [Example 13, 3-(α-ethylbenzyl)-6-(αethylphenethyl)-4-hydroxy-2H-Pyran-2-one] the IC50 (HIV-1 protease) was 1300 nM, the inhibition at 1 µM (HIV-1 protease; [3]) was 79.5% and the inhibition at 10 µM (HIV-1 protease; [3]) was 92%. The inhibition at 100 µM (HIV-1 protease; [3]) was 72%, the retroviral replication (HIV-1IIIB) was “found to inhibit retroviral replication” and the “activity in testosterone 5α-reductase inhibitor assay” value [1] was “had activity”. The “light microscopic examination of testes, adrenals and pituitaries” value ([2]; high dose versus control) was “did not show drug-related changes”, the “Absolute Weight (mean prostate weight)” value [2, 4] was 8.87 GMs and the “Relative Weight* (mean prostate weight)” value [2, 4] was 0.088 % body weight. For the same molecule, the “Absolute Weight (mean prostate weight)” value [2, 5] was 7.55 GMs, the “Relative Weight* (mean prostate weight)” value [2, 5] was 0.074 % body weight and the “Absolute Weight (mean prostate weight)” value [2, 6] was 4.58 GMs. The “Relative Weight* (mean prostate weight)” value [2, 6] was 0.046 % body weight, the “Absolute Weight (mean prostate weight)” value [2, 7] was 4.43 GMs and the “Relative Weight* (mean prostate weight)” value [2, 7] was 0.044 % body weight. The “prostate size and weight” value ([2]; male dogs, oral 50 to 400 mg/kg/day, 28 days) was “dose-related decrease in prostate size and weight; also recorded: dose related decrease in prostate size and weight”, the “dogs with marked decreases of prostate weight” value [2, 8] was 1/4 and the “high dose dogs with lower absolute and relative prostate weights than controls” value [2, 8] was 2/4. The “Absolute Weight (mean prostate weight)” value [2, 9] was 5.65 GMs and the “Relative Weight* (mean prostate weight)” value [2, 9] was 0.055 % body weight.
Work on `CCC(CC1CCCOC1)c1cc(O)c(C(CC)c2ccccc2)c(=O)o1` (centres unmarked) [Example 135, 4-Hydroxy-3-(1-phenylpropyl)-6-[1-[(tetrahydro-2H-pyran-3-yl)methyl]propyl]-2H-pyran-2-one] yielded an inhibition at 0.123 µM (HIV-1 protease; HIV-1 Dose 0.123 uM, read-out: HIV-1 Protease % Inhib) of 12.4%, an inhibition at 0.37 µM (HIV-1 protease; HIV-1 Dose 0.370 uM, read-out: HIV-1 Protease % Inhib) of 26.5% and an inhibition at 1.1 µM (HIV-1 protease; HIV-1 Dose 1.100 uM, read-out: HIV-1 Protease % Inhib) of 65.6%. For the same molecule, the inhibition at 3.3 µM (HIV-1 protease; HIV-1 Dose 3.300 uM, read-out: HIV-1 Protease % Inhib) was 87.9%, the inhibition at 10 µM (HIV-1 protease; [3]) was 103% and the inhibition at 30 µM (HIV-1 protease; HIV-1 Dose 30.000 uM, read-out: HIV-1 Protease % Inhib) was 99.9%. The Ki (HIV-1 protease; read-out: HIV-1 FITC Ki) was 45 nM and the “activity in testosterone 5α-reductase inhibitor assay” value [1] was “had activity”.
Work on `CCC(Cc1ccccc1)c1cc(O)c(C(c2ccccc2)C2CC2)c(=O)o1` (centres unmarked) [Example 86, 6-(1-Benzyl-propyl)-3-(cyclopropyl-phenyl-methyl)-4-hydroxy-pyran-2-one] yielded an inhibition at 1 µM (HIV-1 protease; [3]) of 58.1%, an inhibition at 10 µM (HIV-1 protease; [3]) of 83% and an inhibition at 100 µM (HIV-1 protease; [3]) of 55.3%. For the same molecule, the “activity in testosterone 5α-reductase inhibitor assay” value [1] was “had activity”.
For `CCC(c1ccccc1)c1c(O)cc(CCc2ccccc2)oc1=O` (stereo not drawn) [Example 3, 3-(α-ethylbenzyl)-6-phenethyl-4-hydroxy-2H-Pyran-2-one], the inhibition at 1 µM (HIV-1 protease; [3]) was 19%, the inhibition at 10 µM (HIV-1 protease; [3]) was 67.4% and the “activity in testosterone 5α-reductase inhibitor assay” value [1] was “had activity”.
